{
  "source": "paper PMC6383986",
  "about": "“Fragment-Based Covalent Ligand Screening Enables Rapid Discovery of Inhibitors for the RBR E3 Ubiquitin Ligase HOIP” (Journal of the American Chemical Society, 2019)",
  "key": {"[1]": {"target": "T1, 3 × FLAG-tagged HOIP RBR domain in HEK293T cells (Homo sapiens, UniProt Q96EP0)", "T1 construct": "expressed in transfected cells; host or cells: HEK293T, transient, modified pcDNA3.1(+)", "T1 sequence (Q96EP0 697-1072)": "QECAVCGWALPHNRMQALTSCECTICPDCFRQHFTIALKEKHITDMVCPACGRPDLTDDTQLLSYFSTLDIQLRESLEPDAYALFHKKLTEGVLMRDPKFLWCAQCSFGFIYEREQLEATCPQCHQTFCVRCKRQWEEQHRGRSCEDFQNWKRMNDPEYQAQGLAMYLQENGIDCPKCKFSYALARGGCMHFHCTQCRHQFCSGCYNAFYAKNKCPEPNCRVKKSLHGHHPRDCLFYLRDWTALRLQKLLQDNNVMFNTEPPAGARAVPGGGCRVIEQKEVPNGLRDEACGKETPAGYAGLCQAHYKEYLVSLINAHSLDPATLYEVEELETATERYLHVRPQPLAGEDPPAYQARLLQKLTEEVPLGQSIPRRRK", "test": "In-cell labeling, FLAG-IP, tryptic digest and LC-MS/MS", "format": "cell-based", "conditions": "30 μM, 8 h", "method": "Transfection and compound treatment\nAt approximately 40% confluency, as judged by visual inspection by microscope, cells were transfected by mixing Optimem (Gibco) with the relevant pcDNA3.1 construct (3 µg; 3×FLAG HOIP RBR, 3×FLAG HOIP RBR C885A or mock) and FuGENE transfection reagent (9 µL, vortexed prior to use; Promega) respectively. The solutions were mixed thoroughly and incubated at room temperature for 15 min, then added dropwise and the media was swirled gently to ensure homogenous mixing. The cells were incubated at 37 °C (Binder) for 48 h. Fresh DMEM media supplemented with 1% v/v FBS (Biosera) and 1% v/v L-glutamine/penicillin/streptomycin (Sigma-Aldrich) was aliquoted into 15 mL Falcon tubes (typically 8 mL/tube). […]\nThe lysates were clarified by centrifugation (Heraeus Fresco 17) at 17 000 × g, 4 °C for 20 min and the pellet discarded. The protein concentration was determined using the BCA assay (see […]\nThe protein concentrations of the clarified lysates were normalized with reaction buffer (50 mM Tris-HCl, pH 7.5, 1.5 mM MgCl2, 150 mM NaCl, 1 mM Na3VO4, complete protease inhibitor) to 1.0 mg/mL (final volume 400 µL, and <0.1% IGEPAL-CA630). […] One set of beads were denatured in 2× LDS loading buffer and analyzed by SDS PAGE and Western blot (FLAG antibody, Supplementary Figure S12) as described in […]"}, "[2]": {"target": "T2, IRAK4 (Homo sapiens, UniProt Q9NWZ3)", "T2 construct": "recombinant full length IRAK4-FLAG; His6 (with the rest of the FlagHisAvi vector tag) (C, cleaved yes); made in house; host or cells: Sf9 insect cells (baculovirus)", "T2 sequence (Q9NWZ3 whole entry)": "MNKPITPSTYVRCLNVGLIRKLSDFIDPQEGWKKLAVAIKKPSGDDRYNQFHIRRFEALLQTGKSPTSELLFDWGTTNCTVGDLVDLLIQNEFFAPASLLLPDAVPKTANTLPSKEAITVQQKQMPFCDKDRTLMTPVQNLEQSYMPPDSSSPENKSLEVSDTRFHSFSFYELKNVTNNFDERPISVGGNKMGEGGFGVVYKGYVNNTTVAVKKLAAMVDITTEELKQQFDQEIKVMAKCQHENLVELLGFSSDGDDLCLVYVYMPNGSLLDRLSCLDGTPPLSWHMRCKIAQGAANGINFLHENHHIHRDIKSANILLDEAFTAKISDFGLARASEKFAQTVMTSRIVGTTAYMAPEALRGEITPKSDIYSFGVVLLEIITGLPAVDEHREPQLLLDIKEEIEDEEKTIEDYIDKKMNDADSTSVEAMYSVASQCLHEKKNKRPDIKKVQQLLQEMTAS", "test": "IMAP-FP IRAK4 substrate phosphorylation assay", "format": "biochemical"}},
  "note": "pIC50: −log10 of the molar value. Entries after “also recorded” stand apart in the source; their conditions may differ.",
  "data": [
    {"compound": "COC(=O)/C=C/CNC(=O)c1cc2c([nH]c1=O)CCCC2", "note": "[Compound 11a]", "values": [
      {"measurement": "in-cell labeling of HOIP RBR at C885", "setting": "[1]", "result": "significantly labeled; also recorded: significant labeling"},
      {"measurement": "pIC50", "setting": "[2]; 1 h preincubation, 6 nM IRAK4, 50 μM ATP", "result": "< 3.70"},
      {"measurement": "inhibition of IRAK4 substrate phosphorylation", "setting": "[2]; concentrations up to 200 μM", "result": "no inhibition"}
    ]}
  ]
}
